# Results: publication PMC2857651, “A Single Amino Acid Change Converts the Sugar Sensor SGLT3 into a Sugar Transporter” (PLoS ONE, 2010)
# Positions count from the first letter of the chain named. Names and notes keep the numbering of the source.
# B1: hSGLT3 (Homo sapiens; E457Q) (protein)
# chain: MASTVSPSTIAETPEPPPLSDHIRNAADISVIVIYFLVVMAVGLWAMLKTNRGTIGGFFLAGRDMAWWPMGASLFASNIGSNHYVGLAGTGAASGVATVTFEWTSSVMLLILGWIFVPIYIKSGVMTMPEYLKKRFGGERLQVYLSILSLFICVVLLISADIFAGAIFIKLALGLDLYLAIFILLAMTAVYTTTGGLASVIYTDTLQTIIMLIGSFILMGFAFNEVGGYESFTEKYVNATPSVVEGDNLTISASCYTPRADSFHIFRDAVTGDIPWPGIIFGMPITALWYWCTNQVIVQRCLCGKDMSHVKAACIMCAYLKLLPMFLMVMPGMISRILYTDMVACVVPSECVKHCGVDVGCTNYAYPTMVLELMPQGLRGLMLSVMLASLMSSLTSIFNSASTLFTIDLYTKMRKQASEKELLIAGRIFVLLLTVVSIVWVPLVQVSQNGQLIHYTQSISSYLGPPIAAVFVLAIFCKRVNEQGAFWGLMVGLAMGLIRMITEFAYGTGSCLAPSNCPKIICGVHYLYFSIVLFFGSMLVTLGISLLTKPIPDVHLYRLCWVLRNSTEERIDIDAEEKSQEETDDGVEEDYPEKSRGCLKKAYDLFCGLQKGPKLTKEEEEALSKKLTDTSERPSWRTIVNINAILLLAVVVFIHGYYA
# notes: full-length cDNA, cRNA expressed in Xenopus laevis oocytes (untagged in the oocyte tests)
# What was measured:
# hSGLT3 [1] = target: T1, hSGLT3 (Homo sapiens, UniProt Q9NY91); experiment: inhibition of glucose-induced current, two-electrode voltage clamp in Xenopus oocytes; format: cell-based; details: pH 5, glucose present; phlorizin also blocks about two-thirds of the H+-induced current
# T1 construct: gene SLC5A4; full-length cDNA, cRNA expressed in Xenopus laevis oocytes (untagged in the oocyte tests)
# T1 sequence (Q9NY91 1-659): B1 chain with Q457E
# hSGLT3 [2] = target: T2, hSGLT3 (Homo sapiens, UniProt Q9NY91, E457Q); experiment: inhibition of αM-glc-induced depolarization, two-electrode recording in Xenopus oocytes; format: cell-based; details: read-out: E457Q-hSGLT3 / K0.5
# T2 construct: gene SLC5A4; full-length cDNA, cRNA expressed in Xenopus laevis oocytes (untagged in the oocyte tests)
# T2 sequence (Q9NY91 1-659 E457Q): B1 chain
# Excerpt: inhibition of αM-glc-induced depolarization, two-electrode recording in Xenopus oocytes on hSGLT3
# hSGLT3 [3] = target: T1, hSGLT3; experiment: sugar-induced current, two-electrode voltage clamp in Xenopus oocytes; format: cell-based; details: 150 mM αM-glc, Na+ buffer; bound but not transported
# [4] = substrate: CO[C@H]1O[C@H](CO)[C@@H](O)[C@H](O)[C@H]1O; experiment: sugar-induced depolarization, two-electrode recording in Xenopus oocytes; format: cell-based, Homo sapiens; details: 100 mM Na+, pH 7.4, room temperature, n = 3
# Excerpt: sugar-induced depolarization, two-electrode recording in Xenopus oocytes on hSGLT3
molecule,measurement,setting,value
O=C(CCc1ccc(O)cc1)c1c(O)cc(O)cc1O[C@@H]1O[C@H](CO)[C@@H](O)[C@H](O)[C@H]1O [phlorizin],% inhibition at 100 μM,hSGLT3 [1],2/3
same,Ki,hSGLT3 [2],1600 ± 90 nM
CO[C@H]1O[C@H](CO)[C@@H](O)[C@H](O)[C@H]1O [αM-glc],"sugar-induced current, two-electrode voltage clamp in Xenopus oocytes",hSGLT3 [3],sugar-induced current (difference between black and open circles in 3D and 3G)
B1,K0.5,[4],0.5 ± 0.03 mM
